The text below walks through data of patent US20070099851A1, “Stable analogues of ribose-1-phosphate and methods for treating diabetes and other metabolic disorders” (priority 2004, published 2007).

The target in assay [1] is T1, human purine nucleoside phosphorylase (Homo sapiens, UniProt P00491).
T1 sequence (P00491 1-289): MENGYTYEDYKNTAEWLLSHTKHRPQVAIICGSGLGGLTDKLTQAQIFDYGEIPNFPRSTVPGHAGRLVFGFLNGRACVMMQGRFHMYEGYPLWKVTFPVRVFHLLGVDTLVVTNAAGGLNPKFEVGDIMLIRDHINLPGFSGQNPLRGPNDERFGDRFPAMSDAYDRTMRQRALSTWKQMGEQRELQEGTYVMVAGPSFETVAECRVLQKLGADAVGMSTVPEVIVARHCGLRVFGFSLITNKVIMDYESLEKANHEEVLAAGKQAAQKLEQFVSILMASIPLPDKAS
The conditions noted are these: background statement; cited from earlier work.

In assay [2] the test system is HL-60, Leukemia. The experiment in a line: Anticancer activity, HL-60. Format: cell-based.
The subject of assay [3] is Zucker (fa/fa) rats. The experiment in a line: Glucose tolerance test in diabetic Zucker (fa/fa) rats. Format: in vivo, rat. The conditions noted are these: for Blood Glucose at 120 minutes: fasted Zucker (fa/fa) rats, IP glucose 1.5 g/kg. As to the method: Thirty-six 16 wk old male Zucker (fa/fa) rats were randomly assigned to one of the following groups: • 1. Vehicle (0.9% NaCl) • 2. Metformin—320 mg/kg • 3. Compound 1.1—10 mg/kg Acid • 4. Compound 1.1—100 mg/kg Acid • 5. Compound 3.1—10 mg/kg Ester • 6. Compound 3.1—100 mg/kg Ester
Animals were fasted for 16-18 hr and lightly anesthetized with a mixture of ketamine/xylazine at a dose of 0.5 ml/kg (45 mg/kg ketamine, 5 mg/kg xylazine). Animals received their respective treatments via IP injection (1.5 ml/kg) followed by an IP injection of glucose at 1.5 g/kg. Blood glucose was measured at 0, 30, 60, 90, and 120 minutes post-glucose.

For assay [4], the target named is T2, Fructose-1,6-bisphosphatase (Homo sapiens, UniProt P09467).
T2 sequence (P09467 2-338 limits assumed): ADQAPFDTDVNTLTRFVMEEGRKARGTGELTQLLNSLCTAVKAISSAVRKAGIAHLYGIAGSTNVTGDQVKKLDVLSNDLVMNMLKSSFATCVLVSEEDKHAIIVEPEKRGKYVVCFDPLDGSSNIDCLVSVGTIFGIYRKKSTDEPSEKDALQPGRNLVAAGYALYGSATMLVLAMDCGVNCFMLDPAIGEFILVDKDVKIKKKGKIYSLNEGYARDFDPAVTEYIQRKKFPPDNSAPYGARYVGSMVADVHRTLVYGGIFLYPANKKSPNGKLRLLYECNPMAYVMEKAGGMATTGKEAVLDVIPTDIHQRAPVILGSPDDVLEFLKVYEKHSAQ
Conditions: background statement; cited from earlier work.

Assay [5] relates to FAO hepatoma cells. Description: Inhibition of glucose production in FAO cells. Format: cell-based. The conditions noted are these: for Percent inhibition of glucose production: FAO cells. An excerpt:
(§1) Studies of Compound 2 have shown that it activates 6-phosphofructo-1-kinase (6PF1K) and inhibits fructose-1,6-bisphosphatase (FBPase). […] It is well known that by increasing the rate of glycolysis, the rate of gluconeogenesis decreases (Hanson et al. (1984) J. Biol. Chem. 259, 218-223).

The target in assay [6] is 6-phosphofructo-1-kinase. Conditions: background statement; cited from earlier work.
The test system of assay [7] is 6-phosphofructo-1-kinase. Description: Activation of 6-phosphofructo-1-kinase. Format: biochemical. Conditions: for Ka: concentration giving half-maximal activation.
Source text: as §1
Ka is the concentration of substrate giving half-maximal activation.

In assay [8] the target is T2, Fructose-1,6-bisphosphatase. The experiment in a line: Inhibition of fructose-1,6-bisphosphatase. The assay is classed as biochemical.
Source text: as §1

Assay [9] deals with FAO hepatoma cells. Conditions: background statement; cited from earlier work.
For assay [10], the system named is INS-1 clonal pancreatic B-cells. The experiment in a line: Stimulation of insulin secretion in INS-1 cells. The assay is classed as cell-based. Conditions: for Insulin release greater compared to controls: 3 mM glucose, 500 μM compound, overnight; for Activating effect on insulin release, in words: 16 mM glucose. As to the method: INS-1 clonal pancreatic B-cells were grown in well plates or T-25 flasks incubated overnight with INS-1 cell media with 3 mM glucose and 500 μM of compound 3 or compound 4. Insulin samples were collected for 10 minutes at 18 second intervals. Insulin release was greater for both compound 3.1 and compound 4.1 compared to controls, by about 50 percent, under these conditions. At 16 mM glucose the activating effect disappeared.

Assay [11] concerns Rh1, Ewing Sarcoma. Description: Anticancer activity, Rh1. The assay is classed as cell-based.
Assay [12] has as its target T3, calf spleen purine nucleoside phosphorylase (Bos taurus, UniProt P55859).
T3 construct: from tissue; host or cells: calf spleen
T3 sequence (P55859 1-289): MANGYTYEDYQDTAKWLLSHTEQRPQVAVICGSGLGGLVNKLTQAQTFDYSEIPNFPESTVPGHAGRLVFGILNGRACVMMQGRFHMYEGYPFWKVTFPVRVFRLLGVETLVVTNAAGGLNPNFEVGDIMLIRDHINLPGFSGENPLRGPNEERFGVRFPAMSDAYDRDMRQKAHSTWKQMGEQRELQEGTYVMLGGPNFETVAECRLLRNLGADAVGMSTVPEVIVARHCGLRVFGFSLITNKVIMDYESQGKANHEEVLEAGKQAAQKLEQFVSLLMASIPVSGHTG
The experiment in a line: Inhibition of calf spleen purine nucleoside phosphorylase (cPNP). Format: biochemical. Conditions: for cPNP activity: 27 μM compound. On the procedure: Compound 4.1 (27 μM) was incubated with calf spleen purine nucleoside phosphorylase with increasing concentrations of inorganic phosphate.

In assay [13] the test system is HTC hepatoma cells. Description: Inhibition of intracellular lipid synthesis in HTC hepatoma cells. The assay is classed as cell-based. Conditions: 500 μM; for Cholesterol: control 48; for Triglyceride: control 60.

Where two headings read alike, the source gives them in different places. Marks after values point to notes of the source that are not given here.

In the case of `O=P(O)(O)OC1O[C@H](CI)[C@@H](O)[C@H]1O` (stereo partly shown) [5-iodo-ribose-1-phosphate], the “Effect on human purine nucleoside phosphorylase, in words” value in [1] is recorded as “inhibits”.

For orientation: IC50 means the concentration needed to halve the response being measured. Compound `O=P(O)(O)CC1OC(CO)C(O)C1O` (stereo not shown) [Compound 1.1, ribose-1-methylenephosphonate] displayed an IC50 in [2] of 170 µM. For the same compound, the “Blood Glucose at 120 minutes” value in assay [3] (10 mg/kg IP) is given as 460 mg/dL; in assay [3] (100 mg/kg IP) it was 400 mg/dL. For the same compound, the “Effect on blood glucose levels, in words” value in assay [3] (fasted diabetic Zucker (fa/fa), injected, glucose challenge) is “reduce blood glucose levels”.

As usually defined, the Ki is the dissociation constant of the complex between target and ligand, obtained from inhibition or displacement. Take `O=P(O)(O)CC1OC(COP(=O)(O)O)C(O)C1O` (stereo not shown) [Compound 2.1, 5-phosphoribosyl-1-methylenephosphonate]: the inhibitory constant (Ki) in assay [4] was 85 µM; in assay [8] (At 5 μM Fru-1,6-bisphosphate), 87 µM; in assay [8] (At 20 μM Fru-1,6-bisphosphate), 87 µM. Moreover, the “Percent inhibition of glucose production” value in assay [5] (60 μM) was 20 ± 15%; in assay [5] (100 μM (last row of the table)), 60 ± 15%; in assay [5] (125 μM), 35 ± 10%; in assay [5] (250 μM) it was 40 ± 10%; in [5] (500 μM) it was 35 ± 10%. In addition, the “Glucose production in FAO hepatoma cells, in words” value in assay [5] (incubated with FAO hepatoma cells) is “inhibits glucose production”. For the same compound, the “Blood Glucose at 120 minutes” value in assay [3] (10 mg/kg IP) and in [3] (100 mg/kg IP) was 500 mg/dL throughout. The Ka in [6] and in assay [7] was 6.5 µM each time. Besides, the “Effect on 6-phosphofructo-1-kinase (6PF1K), in words” value in [7] is “activates”. Also, the “Effect on fructose-1,6-bisphosphatase (FBPase), in words” value in assay [8] is given as “inhibits”. For the same compound, the “Maximum Decrease in Activity” value in assay [8] (At 5 μM Fru-1,6-bisphosphate) and in [8] (At 20 μM Fru-1,6-bisphosphate) was 50% throughout. Further, the “Glucose production in cultured hepatoma cells (FAO), in words” value in assay [9] was “inhibit glucose production”.

On to `CCOP(=O)(CC1OC(CO)C(O)C1O)OCC` (stereo not shown) [Compound 3.1, ribose-1-methylenediethylphosphonate], for which, in assay [10], the “Insulin release greater compared to controls” value is on record as “about 50%” and the “Activating effect on insulin release, in words” value is listed as “disappeared”.

In assay [11], `O=P(O)(O)C(F)(F)C1OC(CO)C(O)C1O` (stereo not shown) [Compound 4.1, ribose-1-difluoromethylenephosphonate] yielded a half-maximal inhibitory concentration (IC50) of 170 µM. In addition, the cPNP activity in [12] (Pi 20 μM, control 170) was 18* arbitrary units; in [12] (Pi 50 μM, control 237) it was 31 arbitrary units; in assay [12] (Pi 200 μM, control 298) it was 96 arbitrary units; in assay [12] (Pi 1500 μM, control 327) it was 176 arbitrary units. For the same compound, in assay [12] (27 μM, increasing inorganic phosphate), the “Mode of inhibition of cPNP, in words” value is given as “likely a competitive inhibitor of cPNP”. For the same compound, the “Insulin release greater compared to controls” value in assay [10] is recorded as “about 50%”. For the same compound, in assay [10], the “Activating effect on insulin release, in words” value is reported as “disappeared”. Further, the Cholesterol in [13] was 39 μg/mg protein. The compound further had a Triglyceride in [13] of 44 μg/mg protein. The “Decrease in cholesterol levels compared to control” value in [13] (overnight) is recorded as roughly 20%. Moreover, the “Decrease in triglyceride levels compared to control” value in assay [13] (overnight) is given as 26%.

Turning to `CN(C)C(=N)N=C(N)N` [Metformin, reference compound], the “Blood Glucose at 120 minutes” value in [3] (320 mg/kg IP) was found to be 400 mg/dL. In assay [13], this compound gave a Cholesterol of 38 μg/mg protein and a Triglyceride of 42 μg/mg protein.

Compound `O=P(O)(O)OC[C@H]1O[C@@](CO)(OP(=O)(O)O)[C@@H](O)[C@@H]1O` [fructose-2,6-bisphosphate, reference compound] came in with a Ka in assay [7] of 0.09 µM.

`O=P(O)(O)OC[C@H]1OC(OP(=O)(O)O)[C@H](O)[C@@H]1O` (stereo partly shown) [ribose-1,5-bisphosphate, reference compound]: the Ka in [7] amounted to 3.5 µM. In assay [8] (At 5 μM Fru-1,6-bisphosphate), the affinity, expressed as Ki, was 87 µM and the “Maximum Decrease in Activity” value stood at 50%. In assay [8] (At 20 μM Fru-1,6-bisphosphate), the affinity, expressed as Ki, was 87 µM and the “Maximum Decrease in Activity” value stood at 50%.
